Test results published in patent publication US12643906B2, “Fused aza-heterocyclic amide compound and use thereof” (CSPC ZHONGQI PHARMACEUTICAL TECHNOLOGY (SHIJIAZHUANG) CO., …, priority 2020, dated 2026).
Where two headings read alike, the source gives them in different places. Blank lines part the entries; values can stand above or below the molecule they belong to.

Columns and labels:
[1] = molecular target: T1, Ba/F3 LMNA-NTRK1-G595R (Homo sapiens, UniProt P04629, G595R, cells depend on it); test: In vitro cell proliferation inhibition (MTT); type: cell-based, murine; settings: 72 h, read-out: IC50 Ba/F3 LMNA-NTRK1-G595R
T1 construct: fused on or other part: P02545 (Prelamin-A/C)
Description: (§1) Cells in the logarithmic growth phase were harvested and counted using a […]. The cell suspension with a certain density was pipetted uniformly and seeded into a 96-well plate with each well of 100 μL, and shaken to make the cells uniformly disperse into the wells. 100 μL of compound solution with certain concentration gradient was added into each well, and 3 duplicate wells were set for each concentration. The plate was cultured in a CO2 incubator at 37° C. for 72 h. 20 μL of MTT working solution (5 mg/mL) was added into each well, and the plate was placed at 37° C. for 4 h, and centrifuged at 1000 rpm for 5 min by a plate centrifuge. After 180 μL of culture medium was discarded, the plate was added with 150 μL of DMSO, and mixed well with a microplate shaker, the plate bottom was wiped, and optical density (OD) at 550 nm was detected with a microplate reader.

[2] = molecular target: T2, Ba/F3 LMNA-NTRK1-G667C (Homo sapiens, UniProt P04629, G667C, cells depend on it); test: In vitro cell proliferation inhibition (MTT); type: cell-based, murine; settings: 72 h, read-out: IC50 Ba/F3 LMNA-NTRK1-G667C
T2 construct: fused on or other part: P02545 (Prelamin-A/C)
Description: as §1

[3] = molecular target: T3, Ba/F3 ETV6-NTRK3-G623R (Homo sapiens, UniProt Q16288, G623R, cells depend on it); test: In vitro cell proliferation inhibition (MTT); type: cell-based, murine; settings: 72 h, read-out: IC50 Ba/F3 ETV6-NTRK3-G623R
T3 construct: fused on or other part: P41212 (Transcription factor ETV6)
Description: as §1

[4] = molecular target: T4, Ba/F3 ETV6-NTRK3-G696A (Homo sapiens, UniProt Q16288, G696A, cells depend on it); test: In vitro cell proliferation inhibition (MTT); type: cell-based, murine; settings: 72 h, read-out: IC50 Ba/F3 ETV6-NTRK3-G696A
T4 construct: fused on or other part: P41212 (Transcription factor ETV6)
Description: • Source of 6 kinds of cell lines for the test: KYinno Biotechnology (Beijing) Co., Ltd. • Cell type: murine B cells • Culture medium: RPMI-1640+10% FB S 2. Test Method
as §1

[5] = system: Ba/F3 LMNA-NTRK1-G667C model; settings: gavage
Description: (§2) The cells in the logarithmic growth phase were collected and re-suspending in serum-free culture medium to make the cell concentration at […] cells/mL. The cell suspension was added with equal volume of Matrigel to make the final cell concentration at 3×10^7-5×10^7 cells/mL. The animal model was established by subcutaneously inoculating 0.1 mL of tumor cell suspension in the axilla of the forelimb of NuNu mice (female, 4-6 weeks, Beijing Vital River Laboratory Animal Technology Co., Ltd.) in an amount of 3×10^6-5×10^6 cells/mouse.
(§3) The maximum and the minimum tumor diameters of the xenografts in nude mice were measured using a vernier caliper, and the tumor volume (TV) was calculated according to the formula: V=½×a×b^2, where a and b represent the maximum and minimum diameters of the tumor mass, respectively. Nude mice with appropriate tumor volume were selected and the mice were evenly divided into 7 groups of 6 mice (100-200 mm^3) by tumor volume using a random number method.
(§4) Tumor diameters were measured twice weekly and tumor volume was calculated. […] (where Ti represents the mean tumor volume of a certain administration group on a certain day; TO represents the mean tumor volume of the administration group at the start of administration, Vi represents the mean tumor volume of the vehicle control group on a certain day (same day as Ti) and V0 represents the mean tumor volume of the vehicle control group at the start of administration); • Tumor inhibition rate: at the end of the test, the animals were executed by removing the cervical vertebrae.

[6] = system: Ba/F3 LMNA-NTRK1-G595R model; settings: 100 mg/kg, gavage
Description: as §2, §3, §4

[7] = molecular target: T5, Ba/F3 ETV6-NTRK2 (Homo sapiens, UniProt Q16620); test: In vitro cell proliferation inhibition (MTT); type: cell-based, murine
T5 construct: fused on or other part: P41212 (Transcription factor ETV6)
Description: as §1

[8] = molecular target: T6, Ba/F3 LMNA-NTRK1 (Homo sapiens, UniProt P04629); test: In vitro cell proliferation inhibition (MTT); type: cell-based, murine; settings: 72 h, read-out: IC50 Ba/F3 LMNA-NTRK1
T6 construct: fused on or other part: P02545 (Prelamin-A/C)
Description: as §1

[9] = molecular target: T7, ALK (Homo sapiens, UniProt Q9UM73); test: Kinase inhibition assay with fluorescein labeled peptide, ALK; type: biochemical
T7 construct: purchased Carna 08-105
Description: (§5) Compounds were diluted to a certain concentration in DMSO with 4-fold gradients. The compound with a certain concentration, an enzyme solution and DMSO were added into a 384-well plate, and the plate was incubated at room temperature for 10 min. […] The plate was subjected to reading.

[10] = molecular target: T8, TRKB (Homo sapiens, UniProt Q16620); test: HTRF kinase inhibition assay, TRKB; type: biochemical
T8 construct: purchased Bioduro
Description: (§6) The compound to be tested with a certain concentration gradient and an enzyme solution were successively added into a plate (kinase buffer (1× kinase buffer (Cisbio, Cat #62EZBFDD), pH 7.5; 5 mM MgCl2, 1 mM DTT) was added into negative control wells), and the compound plate was centrifuged at 1000 rpm for 30 seconds. The plate was sealed and incubated in a Constant Temperature Incubator at 25° C. for 30 min. A substrate solution containing TK-Sub-biotin (Cisbio, Cat #61TKOBL) and ATP (Sigma, Cat #R0441) was prepared, the substrate solution was added into a 384-well plate, and the plate was centrifuged at 1000 rpm for 30 seconds. The plate was sealed and incubated in a Constant Temperature Incubator at 25° C. for 60 min.
(§7) TK antibody and XL665 were diluted, mixed and added into the assay plate, and the plate was centrifuged at 1000 rpm for 30 seconds. The plate was sealed and incubated in a Constant Temperature incubator Incubator at 25° C. for 60 min. The assay plate was placed on an Envision reader for reading.
(§8) Data were fitted in XLFit excel add-in version 5.4.0.8 to obtain IC50 values.

[11] = molecular target: T9, TRKC(G696A) (Homo sapiens, UniProt Q16288, G696A); test: HTRF kinase inhibition assay, TRKC(G696A); type: biochemical
T9 construct: purchased Bioduro
Description: as §6, §7, §8

[12] = molecular target: T10, TRKC(G623R) (Homo sapiens, UniProt Q16288, G623R); test: HTRF kinase inhibition assay, TRKC(G623R); type: biochemical
T10 construct: purchased Bioduro
Description: as §6
as §7, with “reading. (HTRF 665/615 ratio: signal value at 665 nm/signal value at 615 nm) Inhibition=(rationegative control well−ratiocompound well)/(rationegative control well−ratioenzyme-free control well)×100% 1.3 Data Analysis and Curve Fitting” for “reading.”
as §8

[13] = molecular target: T11, TRKA (Homo sapiens, UniProt P04629); test: HTRF kinase inhibition assay, TRKA; type: biochemical
T11 construct: purchased Bioduro
Description: as §6
as §7, with “reading. (HTRF 665/615 ratio: signal value at 665 nm/signal value at 615 nm) Inhibition=(rationegative control well−ratiocompound well)/(rationegative control well−ratioenzyme-free control well)×100% 1.3 Data Analysis and Curve Fitting” for “reading.”
as §8

[14] = molecular target: T12, TRKC (Homo sapiens, UniProt Q16288); test: HTRF kinase inhibition assay, TRKC; type: biochemical
T12 construct: purchased Bioduro
Description: as §6
as §7, with “reading. (HTRF 665/615 ratio: signal value at 665 nm/signal value at 615 nm) Inhibition=(rationegative control well−ratiocompound well)/(rationegative control well−ratioenzyme-free control well)×100% 1.3 Data Analysis and Curve Fitting” for “reading.”
as §8

[15] = molecular target: T13, TRKA(G595R) (Homo sapiens, UniProt P04629, G595R); test: HTRF kinase inhibition assay, TRKA(G595R); type: biochemical
T13 construct: purchased signalchem
Description: as §6
as §7, with “reading. (HTRF 665/615 ratio: signal value at 665 nm/signal value at 615 nm) Inhibition=(rationegative control well−ratiocompound well)/(rationegative control well−ratioenzyme-free control well)×100% 1.3 Data Analysis and Curve Fitting” for “reading.”
as §8

[16] = molecular target: T14, ROS1 (Homo sapiens, UniProt P08922); test: Kinase inhibition assay with fluorescein labeled peptide, ROS1; type: biochemical
T14 construct: purchased Carna 08-163
Description: as §5

[17] = molecular target: T15, TRKA(G667C) (Homo sapiens, UniProt P04629, G667C); test: HTRF kinase inhibition assay, TRKA(G667C); type: biochemical
T15 construct: purchased signalchem
Description: as §6
as §7, with “reading. (HTRF 665/615 ratio: signal value at 665 nm/signal value at 615 nm) Inhibition=(rationegative control well−ratiocompound well)/(rationegative control well−ratioenzyme-free control well)×100% 1.3 Data Analysis and Curve Fitting” for “reading.”
as §8

[18] = 72 h, read-out: IC50 Ba/F3 ETV6-NTRK2

Compound: C[C@@H]1CCc2ncc(F)cc2[C@H]2CCCN2c2ccn3ncc(c3n2)C(=O)N1 [LOXO-195, reference compound]
Number of animals (Survival/total) ([5]; 100 mg/kg): (6/6)
Rate of weight gain (%) ([5]; 100 mg/kg): 2.38%
TGI (%) ([5]; 100 mg/kg): 36.4%
Tumor volume (mm^3) ([5]; 100 mg/kg): 381.2 ± 134.4 mm^3
Tumor weight ([5]; 100 mg/kg): 0.43 ± 0.18 g
Tumor weight inhibition rate (%) ([5]; 100 mg/kg): 21.57%
Number of animals (Survival/total) ([5]; 200 mg/kg): (5/6)
Rate of weight gain (%) ([5]; 200 mg/kg): 7.88%
TGI (%) ([5]; 200 mg/kg): 95.4%
Tumor volume (mm^3) ([5]; 200 mg/kg): 154.5 ± 92.2 mm^3
Tumor weight ([5]; 200 mg/kg): 0.22 ± 0.16 g
Tumor weight inhibition rate (%) ([5]; 200 mg/kg): 59.96%
Number of animals (Survival/total) [6]: (6/6)
Rate of weight gain (%) [6]: 8.59%
TGI (%) [6]: 124.6%
Tumor volume (mm^3) [6]: 66.3 ± 37.1 mm^3
Tumor weight [6]: 0.12 ± 0.06 g
Tumor weight inhibition rate (%) [6]: 76.58%
GI50 [2]: 112 nM
GI50 [7, 18]: 2.89 nM
GI50 [3]: 4.54 nM
GI50 [8]: 9.08 nM
IC50 [9]: 391 nM
GI50 [4]: 4.5 nM

Compound: COc1cc(N2CCN(C)CC2)ccc1C(=O)Nc1cnn2ccc(N3CCC[C@@H]3c3cc(F)ccc3F)nc12 [Compound D2]
GI50 [1]: 230 nM
GI50 [2]: 42.7 nM
GI50 [7, 18]: 13.4 nM
GI50 [3]: 46.5 nM
GI50 [8]: 1.03 nM
GI50 [4]: 202 nM

Compound: CN1CCN(c2ccc(C(=O)Nc3n[nH]c4ccc(Cc5cc(F)cc(F)c5)cc34)c(NC3CCOCC3)c2)CC1 [RXDX-101, Entrectinib]
GI50 ([7]; read-out: IC50 Ba/F3 ETV6-NTRK2, 72 h): 2.13 nM

Now from value to molecule:

GI50 [1]: 0.525 nM
GI50 [2]: 4.93 nM
GI50 [3]: 0.852 nM
GI50 [4]: 0.435 nM
Compound: O=C(Nc1ccc(N2CCn3c(nnc3C(F)(F)F)C2)cc1)c1cnn2ccc(N3C[C@@H](F)C[C@@H]3c3cc(F)ccc3F)nc12 [Compound 23]

GI50 [2]: 0.584 nM
IC50 [10]: 1.55 nM
IC50 [11]: 1.2 nM
IC50 [12]: 0.749 nM
IC50 [13]: 0.405 nM
IC50 [14]: 0.901 nM
IC50 [9]: 30 nM
IC50 [15]: < 0.169 nM
IC50 [16]: 0.33 nM
IC50 [17]: 0.632 nM
Compound: O=C(Nc1ccc(N2CC[C@H](O)C2)cc1)c1cnn2ccc(N3C[C@@H](F)C[C@@H]3c3cc(F)ccc3F)nc12 [Compound 21]

GI50 [1]: 0.156 nM
GI50 [2]: 1.78 nM
GI50 [3]: 0.499 nM
GI50 [4]: 0.736 nM
Compound: O=C(Nc1ccc(N2CCN(C(=O)C3CC3)CC2)cc1)c1cnn2ccc(N3C[C@@H](F)C[C@@H]3c3cc(F)ccc3F)nc12 [Compound 7]

GI50 [1]: 0.215 nM
GI50 [2]: 1.53 nM
GI50 [7, 18]: 1.13 nM
GI50 [3]: 0.237 nM
GI50 [8]: 0.635 nM
GI50 [4]: 0.112 nM
Compound: C[C@@H](O)C(=O)N1CCC(c2ccc(NC(=O)c3cnn4ccc(N5C[C@@H](F)C[C@@H]5c5cc(F)ccc5F)nc34)cc2)CC1 [Compound 12]
